Source: patent publication US20060241097A1, “Pesticidal substituted 1,2,5-thiadiazole derivatives” (FMC CORPORATION, priority 2003, published 2006)
Counter-ions that a name gives are not always drawn. Like-named read-outs stand apart in the source and are kept apart here.

Columns and labels:
[1] = tested on: two-spotted spider mite (Tetranychus urticae); assay: Foliar test against two-spotted spider mite on pinto bean seedlings; type: in vivo; conditions: foliar spray, 72 hours
Protocol: Candidate pesticides, i.e., acaricides of the present invention were evaluated on 7-8 day old pinto bean seedlings infested with two-spotted spider mite (Tetranychus urticae) in comparison with the corresponding 1,2,4-thiadiazole derivatives. The test was conducted using the test method set forth below:
One to two hours prior to the test, leaf cuttings containing about 50-75 adult mites were placed on leaves of each of duplicate pinto bean seedlings for each rate of application of candidate acaricide. Solutions of the candidate acaricide were prepared for testing by serial dilution of a standard solution comprised of an appropriate amount of acaricide in a water/acetone solvent, which contained a small amount of a surfactant. Rates of application of candidate acaricide may range from about 1000 ppm, or more, to about 1 ppm, or less, in a rate series of, for example, 1000 ppm, 300 ppm, 100 ppm, 30 ppm, 10 ppm, 3 ppm, and 1 ppm. The solutions containing each rate of application of candidate acaricide were then sprayed to run-off to both the upper and lower portions of the leaves of the mite-infested pinto bean seedlings. Each test of foliar-applied candidate acaricide included appropriate standard acaricide of known acaricidal activity and blank treatments to aid in assessing the acaricidal activity of the candidate acaricide. Upon completion of the spraying with candidate acaricide, the pinto bean seedlings were maintained in a growth chamber for a period of 72 hours. After this time, the seedlings were examined for dead acarids. […] Upon completion of the evaluation of the test, the percent control of the two-spotted spider mite for each rate of application of the candidate acaricide was determined by comparison of the total number of dead and motibund acarids to the total number of acarids in the test.

[2] = tested on: cotton aphid (Aphis gossypii); assay: Foliar test against cotton aphid on cotton seedlings; type: in vivo
Protocol: Candidate pesticides, i.e., insecticides of the present invention were evaluated on 7-10 day old cotton seedlings infested with cotton aphid (Aphis gossypii). At least 12 hours prior to the test, leaf cuttings containing about 50 adult aphids were placed on leaves of each of duplicate cotton seedlings for each rate of application of candidate insecticide. Solutions of the candidate insecticide were prepared for testing by serial dilution of a standard solution comprised of an appropriate amount of insecticide in a water/acetone solvent, which contained a small amount of a surfactant. Rates of application of candidate insecticide may range from about 1000 ppm, or more, to about 3 ppm, or less, in a rate series of, for example, 1000 ppm, 100 ppm, 30 ppm, 10 ppm, and 3 ppm. The solutions containing each rate of application of candidate insecticide were then sprayed to run-off to both the upper and lower portions of the leaves of the aphid-infested cotton seedlings. Each test of foliar-applied candidate insecticide included appropriate standard insecticide of known insecticidal activity and blank treatments to aid in assessing the insecticidal activity of the candidate insecticide. Upon completion of the spraying with candidate insecticide, the cotton seedlings were maintained in a growth chamber for a period of 72 hours. After this time, the seedlings were examined for dead insects. Insects were classified as dead if they were off-color or brown and desiccated. Upon completion of the evaluation of the test, the percent mortality of the cotton aphid for each rate of application of the candidate insecticide was determined by comparison of the total number of dead insects to the total number of insects in the test.

[3] = cotton aphid, foliar spray, 1000 ppm, 72 hours
[4] = Aphis gossypii, cotton aphid, foliar spray, 300 ppm, 72 hours, read-out: Percent Mortality
[5] = Aphis gossypii, cotton aphid, foliar spray, 1000 ppm, 72 hours, read-out: Percent Mortality
[6] = Aphis gossypii, foliar, 72 h, read-out: Percent Mortality
[7] = cotton aphid, foliar spray, 300 ppm, 72 hours

Structure (SMILES): Clc1nsnc1C1(Cl)CN2CCC1CC2 (centres unmarked)
- melting point: 93 to 95 °C

Structure (SMILES): Clc1nsnc1C1=CC=CN(Cc2ccccc2)C1 (as salt: salt) [Compound 162, 3-chloro-4-(1-benzylpyrid-3-yl)-1,2,5-thiadiazole]
- melting point: 47 to 49 °C

Structure (SMILES): CN1CCC=C(c2ncns2)C1 [A, reference compound]
- Percent Control ([1]; 300 ppm): completely inactive

Structure (SMILES): Cc1nsc(C2=CCCN(C)C2)n1 [B, reference compound]
- Percent Control ([1]; 300 ppm): completely inactive

Structure (SMILES): Clc1nsnc1C1=CCCN(Cc2ccccc2)C1 [Compound 2, 3-chloro-4-[1-benzyl(1,2,5,6-tetrahydropyrid-3-yl)]-1,2,5-thiadiazole]
- mortality at 1000 ppm ([2]; Aphis gossypii, cotton aphid, foliar spray, 1000 ppm, 72 hours, read-out: Percent Mortality (LP class)): > 0%

Structure (SMILES): CCOC(=O)N1CCC=C(c2nsnc2Cl)C1 [Compound 3]
- Percent Mortality (LP class) [2, 3]: LP (LP means that some activity was observed because the population of the cotton aphids was lowered but a value was not calculated.)

Structure (SMILES): CN1CCC=C(c2cnsn2)C1 [Compound 4, 3-[1-methyl(1,2,5,6-tetrahydropyrid-3-yl)]-1,2,5-thiadiazole]
- mortality at 100 ppm ([2]; Aphis gossypii, cotton aphid, foliar spray, 100 ppm, 72 hours, read-out: Percent Mortality): 24%
- mortality at 300 ppm [2, 4]: 73%
- mortality at 1000 ppm [2, 5]: 86%
- Percent Control ([1]; 10 ppm): 49%
- Percent Control ([1]; 30 ppm): 96%
- Percent Control ([1]; 100 ppm): 100%
- Percent Control ([1]; 300 ppm): 100%
- Percent Control ([1]; 1000 ppm): 100%

Structure (SMILES): CN1CCC=C(c2nsnc2F)C1 [Compound 23, 3-fluoro-4-(1-methyl-1,2,5,6-tetrahydropyrid-3-yl)-1,2,5-thiadiazole]
- mortality at 1000 ppm ([2]; Aphis gossypii, cotton aphid, foliar spray, 1000 ppm, 72 hours, average of two tests, read-out: Percent Mortality): 11%
- Percent Control ([1]; 10 ppm): 35%
- Percent Control ([1]; 30 ppm): 95%
- Percent Control ([1]; 100 ppm): 98%
- Percent Control ([1]; 300 ppm): 100%

Structure (SMILES): CCCCOc1nsnc1C1=CCCN(C)C1 [Compound 60]
- Percent Mortality (LP class) [2, 3]: LP (LP means that some activity was observed because the population of the cotton aphids was lowered but a value was not calculated.)
- Percent Control ([1]; 300 ppm): 10%
- Percent Control ([1]; 1000 ppm): 41%

Structure (SMILES): CN1CCC=C(c2nsnc2Oc2ccc(F)cc2)C1 [Compound 63]
- Percent Mortality ([2]; cotton aphid, foliar spray, 1000 ppm, 72 hours, average of two tests): 48%

Structure (SMILES): C#CCOc1nsnc1C1=CCCN(C)C1 [Compound 66]
- Percent Control ([1]; 100 ppm): 52%
- Percent Control ([1]; 300 ppm): 83%
- Percent Control ([1]; 1000 ppm): 98%

Structure (SMILES): CC#CCOc1nsnc1C1=CCCN(C)C1 [Compound 67]
- Percent Control ([1]; 300 ppm): 100%
- Percent Control ([1]; 1000 ppm): 100%

Structure (SMILES): C#CCCOc1nsnc1C1=CCCN(C)C1 [Compound 68]
- Percent Mortality (LP class) [2, 3]: LP (LP means that some activity was observed because the population of the cotton aphids was lowered but a value was not calculated.)

Structure (SMILES): CCCSc1nsnc1C1=CCCN(C)C1 [Compound 71]
- Percent Control ([1]; 300 ppm): 20%

Structure (SMILES): CCCCSc1nsnc1C1=CCCN(C)C1 [Compound 72]
- Percent Control ([1]; 300 ppm): 4%
- Percent Control ([1]; 1000 ppm): 34%

Structure (SMILES): CCCCCSc1nsnc1C1=CCCN(C)C1 [Compound 73]
- Percent Mortality (LP class) [2, 3]: LP (LP means that some activity was observed because the population of the cotton aphids was lowered but a value was not calculated.)

Structure (SMILES): CCCCCCSc1nsnc1C1=CCCN(C)C1 [Compound 75]
- Percent Mortality [2, 3]: 25%

Structure (SMILES): C=CCSc1nsnc1C1=CCCN(C)C1 [Compound 77]
- Percent Control ([1]; 300 ppm): 13%

Structure (SMILES): Clc1nsnc1C1CN2CCC1CC2 (centres unmarked) [Compound 102, 3-chloro-4-quinuclidin-3-yl-1,2,5-thiadiazole]
- mortality at 300 ppm [2, 6]: 8%
- mortality at 1000 ppm [2, 6]: 33%
- Percent Control ([1]; 100 ppm): 13%
- Percent Control ([1]; 300 ppm): 27%

Structure (SMILES): COc1nsnc1C1CN2CCC1CC2 (centres unmarked) [Compound 107]
- Percent Mortality [2, 7]: 12%
- Percent Mortality [2, 3]: 24%

Structure (SMILES): CCOc1nsnc1C1CN2CCC1CC2 (centres unmarked) [Compound 108]
- Percent Mortality [2, 7]: 3%
- Percent Mortality [2, 3]: 17%

Structure (SMILES): CCCOc1nsnc1C1CN2CCC1CC2 (centres unmarked) [Compound 109]
- Percent Control ([1]; 300 ppm): 15%
- Percent Control ([1]; 1000 ppm): 65%

Structure (SMILES): CCCCOc1nsnc1C1CN2CCC1CC2 (centres unmarked) [Compound 110, 3-butoxy-4-quinuclidin-3-yl-1,2,5-thiadiazole]
- mortality at 1000 ppm ([2]; Aphis gossypii, foliar, 72 h, read-out: Percent Mortality (LP class)): > 0%
- Percent Control ([1]; 300 ppm): 34%

Structure (SMILES): Cc1nsnc1-c1cccnc1 [Compound 132, 3-methyl-4-pyrid-3-yl-1,2,5-thiadiazole]
- mortality at 300 ppm [2, 4]: 35%
- mortality at 1000 ppm [2, 5]: 82%

Structure (SMILES): CCCOc1nsnc1C1=CC=CNC1 [Compound 140]
- Percent Mortality (LP class) [2, 3]: LP (LP means that some activity was observed because the population of the cotton aphids was lowered but a value was not calculated.)
